Data on 25 molecules can be found in patent publication US20140343017A1, “PYRROLE COMPOUND” (Kabushiki Kaisha Yakult Honsha, priority 2012, published 2014).

What all share (experiment): Inhibitory effect on growth of human cancer cells (in vitro), WST-8
Assay type in all cases: cell-based
(Formazan colour is commonly taken as a measure of viable cells.)

For assay [1], the system named is human colorectal cancer HCT116 cells. To be noted: 96 hours culture. As to the method: (§1) Each pyrrole compound of the present invention was studied for its effects on the growth of human non-small cell lung cancer A549 cells and human colorectal cancer HT-29 cells and HCT116 cells. The cells of each line were suspended in an RPMI1640 medium supplemented with 10% fetal bovine serum and inoculated at a cell density of 1000 cells/50 μL/well to a 96-well plate. After overnight culture, each compound diluted with a medium was added thereto at a concentration of 50 μL/well, and the cells were further cultured for 96 hours. After the completion of culture, WST-8 (Seikagaku Corp.) was added thereto at a concentration of 10 μL/well, and the cells were cultured at 37° C. for approximately 1 hour under 5% CO2 conditions, followed by measurement of absorbance at 450 nm.

In assay [2] the test system is human non-small cell lung cancer A549 cells. To be noted: 96 hours culture. The method, then: as §1
For assay [3], the system named is human colorectal cancer HT-29 cells. To be noted: Homo sapiens, HT-29, 96 h, 96 hours culture, read-out: IC50 (nM) HT29. As to the method:
as §1

Broadly, the IC50 is the concentration that inhibits the measured activity by half. On to `Cc1c(-c2nnc(C3CC3)o2)[nH]c(C=O)c1C(=O)c1cccc(Br)c1` [Compound 261, 3-(3-bromobenzoyl)-5-(5-cyclopropyl-1,3,4-oxadiazol-2-yl)-4-methyl-1H-pyrrole-2-carboaldehyde], for which the IC50 in assay [1] (Homo sapiens, HCT-116, 96 h) was found to be 88.9 nM; in assay [2] (Homo sapiens, A549, 96 h), 12.9 nM; in assay [3], 9.4 nM.

As to `Cc1[nH]c(-c2nnc(C3CC3)o2)c(C)c1C(=O)c1cccc(OCCN)c1` [Compound 253, (3-(2-aminoethoxy)phenyl)(5-(5-cyclopropyl-1,3,4-oxadiazol-2-yl)-2,4-dimethyl-1H-pyrrol-3-yl)methanone], the IC50 worked out at 45.2 nM in assay [1] (Homo sapiens, HCT-116, 96 h); 351 nM in assay [2] (Homo sapiens, A549, 96 h); 146 nM in assay [3].

For the molecule `Cc1[nH]c(-c2nnn(CCN)n2)c(C)c1C(=O)c1cccc(Br)c1` [Compound 103, (5-(2-(2-aminoethyl)-2H-tetrazol-5-yl)-2,4-dimethyl-1H-pyrrol-3-yl)(3-bromophenyl)methanone], the IC50 amounted to 182 nM in assay [1] (Homo sapiens, HCT-116, 96 h); 87.8 nM in assay [2] (Homo sapiens, A549, 96 h); 43.3 nM in assay [3].

`COc1ccc(C(=O)c2c(/C=N\O)[nH]c(-c3nnn(CCOC(C)=O)n3)c2C)cc1Br` [Compound 170, (Z)-2-(5-(4-(3-bromo-4-methoxybenzoyl)-5-((hydroxyimino)methyl)-3-methyl-1H-pyrrol-2-yl)-2H-tetrazol-2-yl)ethyl acetate]: the IC50 turned out to be 133 nM in assay [1] (Homo sapiens, HCT-116, 96 h); 197 nM in assay [2] (Homo sapiens, A549, 96 h); 143 nM in assay [3].

In the case of `CCc1nnc(-c2c(C)c(C(=O)c3cccc(Br)c3)c(C)n2C)o1` [Compound 223, (3-bromophenyl) (5-(5-ethyl-1,3,4-oxadiazol-2-yl)-1,2,4-trimethyl-1H-pyrrol-3-yl)methanone], the IC50 in assay [1] (Homo sapiens, HCT-116, 96 h) amounted to 46.9 nM; in assay [2] (Homo sapiens, A549, 96 h), 231 nM; in assay [3] it was 28.1 nM.

As to `CC(=O)OCCn1nnc(-c2[nH]c(CCl)c(C(=O)c3cccc(Br)c3)c2C)n1` [Compound 171, 2-(5-(4-(3-bromobenzoyl)-5-(chloromethyl)-3-methyl-1H-pyrrol-2-yl)-2H-tetrazol-2-yl)ethyl acetate], the IC50 was 37.7 nM in assay [1] (Homo sapiens, HCT-116, 96 h); 47.4 nM in assay [2] (Homo sapiens, A549, 96 h); 35.7 nM in assay [3].

`CCn1nnc(-c2[nH]c(C)c(C(=O)c3ccc(OCCN)c(Br)c3)c2C)n1` [Compound 167, (4-(2-aminoethoxy)-3-bromophenyl) (5-(2-ethyl-2H-tetrazol-5-yl)-2,4-dimethyl-1H-pyrrol-3-yl)methanone]: the IC50 in assay [1] (Homo sapiens, HCT-116, 96 h) was found to be 39.5 nM; in assay [2] it was 139 nM; in assay [3] it was 31.5 nM.

With `Cc1[nH]c(-c2nnc(C3CC3)o2)c(C)c1C(=O)c1cc(Br)ccc1O` [Compound 241, (5-bromo-2-hydroxyphenyl)(5-(5-cyclopropyl-1,3,4-oxadiazol-2-yl)-2,4-dimethyl-1H-pyrrol-3-yl)methanone], the IC50 worked out at 1.4 nM in assay [1] (Homo sapiens, HCT-116, 96 h); 2.1 nM in assay [2] (Homo sapiens, A549, 96 h); 2.6 nM in assay [3].

In the case of `Cc1c(-c2nnn(CCO)n2)[nH]c(C(C)(C)O)c1C(=O)c1cccc(Br)c1` [Compound 285, (3-bromophenyl)(5-(2-(2-hydroxyethyl)-2H-tetrazol-5-yl)-2-(2-hydroxypropan-2-yl)-4-methyl-1H-pyrrol-3-yl)methanone], the IC50 in assay [1] (Homo sapiens, HCT-116, 96 h) amounted to 246 nM; in assay [2] (Homo sapiens, A549, 96 h) it was 595 nM; in assay [3], 598 nM.

For the molecule `Cc1[nH]c(-c2nnc(C3CC3)o2)c(C)c1C(=O)c1ccc(OCCN(C)C)c(Br)c1` [Compound 257, (3-bromo-4-(2-(dimethylamino)ethoxy)phenyl) (5-(5-cyclopropyl-1,3,4-oxadiazol-2-yl)-2,4-dimethyl-1H-pyrrol-3-yl)methanone], the IC50 amounted to 865 nM in assay [1] (Homo sapiens, HCT-116, 96 h); 865 nM in assay [2] (Homo sapiens, A549, 96 h); 384 nM in assay [3].

As to `COc1ccc(C(=O)c2c(C(F)F)[nH]c(-c3nnn(CCOC(C)=O)n3)c2C)cc1Br` [Compound 126, 2-(5-(4-(3-bromo-4-methoxybenzoyl)-5-(difluoromethyl)-3-methyl-1H-pyrrol-2-yl)-2H-tetrazol-2-yl)ethyl acetate], the IC50 in assay [1] (Homo sapiens, HCT-116, 96 h) came to 38.2 nM; in assay [2] (Homo sapiens, A549, 96 h), 38.2 nM; in assay [3], 33.1 nM.

Turning to `CCc1nnc(-c2c(C)c(C(=O)c3cccc(Br)c3)c(C)n2CCO)o1` [Compound 236, (3-bromophenyl) (1-(2-hydroxyethyl)-2,4-dimethyl-5-(5-ethyl-1,3,4-oxadiazol-2-yl)-1H-pyrrol-3-yl)methanone], the IC50 in assay [1] (Homo sapiens, HCT-116, 96 h) was 231 nM; in assay [2] (Homo sapiens, A549, 96 h), 469 nM; in assay [3] it was 168 nM.

For `CCn1nnc(-c2[nH]c(C)c(C(=O)c3cccc(OCCN)c3)c2C)n1` [Compound 165, (3-(2-aminoethoxy)phenyl)(5-(2-ethyl-2H-tetrazol-5-yl)-2,4-dimethyl-1H-pyrrol-3-yl)methanone], the IC50 in assay [1] stood at 40.2 nM; in assay [2] (Homo sapiens, A549, 96 h), 359 nM; in assay [3] it was 126 nM.

Take `Cc1c(-c2nnn(CCN)n2)[nH]c(CO)c1C(=O)c1cccc(Br)c1` [Compound 280, (5-(2-(2-aminoethyl)-2H-tetrazol-5-yl)-2-(hydroxymethyl)-4-methyl-1H-pyrrol-3-yl) (3-bromophenyl)methanone]: the concentration for half-maximal inhibition (IC50) in assay [1] (Homo sapiens, HCT-116, 96 h) is 250 nM; in assay [2] (Homo sapiens, A549, 96 h), 250 nM; in assay [3] it was 194 nM.

Take `Cc1[nH]c(-c2nnn(CCN)n2)c(Br)c1C(=O)c1cccc(Br)c1` [Compound 290, (5-(2-(2-aminoethyl)-2H-tetrazol-5-yl)-4-bromo-2-methyl-1H-pyrrol-3-yl)(3-bromophenyl)methanone]: the IC50 in assay [1] (Homo sapiens, HCT-116, 96 h) stood at 184 nM; in assay [2] (Homo sapiens, A549, 96 h), 167 nM; in assay [3] it was 123 nM.

For `COc1ccc(C(=O)c2c(C=O)[nH]c(-c3nnn(CCOC(C)=O)n3)c2C)cc1Br` [Compound 124, 2-(5-(4-(3-bromo-4-methoxybenzoyl)-5-formyl-3-methyl-1H-pyrrol-2-yl)-2H-tetrazol-2-yl)ethyl acetate], the IC50 came out at 37.8 nM in assay [1] (Homo sapiens, HCT-116, 96 h); 38.6 nM in assay [2] (Homo sapiens, A549, 96 h); 30.4 nM in assay [3].

With `CCc1nnc(-c2[nH]c(C)c(C(=O)c3cccc([N+](=O)[O-])c3)c2C)o1` [Compound 195, (5-(5-ethyl-1,3,4-oxadiazol-2-yl)-2,4-dimethyl-1H-pyrrol-3-yl)(3-nitrophenyl)methanone], the IC50 was determined as 9.9 nM in assay [1] (Homo sapiens, HCT-116, 96 h); 12.2 nM in assay [2] (Homo sapiens, A549, 96 h); 8.5 nM in assay [3].

Turning to `Cc1[nH]c(-c2nnc(CO)o2)c(C)c1C(=O)c1cc(Br)ccc1O` [Compound 203, (5-bromo-2-hydroxyphenyl)(5-(5-(hydroxymethyl)-1,3,4-oxadiazol-2-yl)-2,4-dimethyl-1H-pyrrol-3-yl)methanone], the IC50 in assay [1] (Homo sapiens, HCT-116, 96 h) was determined as 152 nM; in assay [2] (Homo sapiens, A549, 96 h), 210 nM; in assay [3], 171 nM.

Take `Cc1[nH]c(-c2nnc(C3CC3)o2)c(C)c1C(=O)c1cccc([N+](=O)[O-])c1` [Compound 196, (5-(5-cyclopropyl-1,3,4-oxadiazol-2-yl)-2,4-dimethyl-1H-pyrrol-3-yl)(3-nitrophenyl)methanone]: the half-inhibitory concentration (IC50) in assay [1] (Homo sapiens, HCT-116, 96 h) amounted to 5.5 nM; in assay [2] (Homo sapiens, A549, 96 h) it was 9.9 nM; in assay [3], 6.2 nM.

For the molecule `Cc1[nH]c(-c2nnc(CN)o2)c(C)c1C(=O)c1cccc(Br)c1` [Compound 214, (5-(5-(aminomethyl)-1,3,4-oxadiazol-2-yl)-2,4-dimethyl-1H-pyrrol-3-yl)(3-bromophenyl)methanone], the IC50 in assay [1] (Homo sapiens, HCT-116, 96 h) came to 286 nM; in assay [2] (Homo sapiens, A549, 96 h), 999 nM; in assay [3] it was 230 nM.

With `COc1ccc(C(=O)c2c(CN3CCCCC3)[nH]c(-c3nnc(C4CC4)o3)c2C)cc1Br` [Compound 270, (3-bromo-4-methoxyphenyl)(5-(5-cyclopropyl-1,3,4-oxadiazol-2-yl)-4-methyl-2-(piperidin-1-ylmethyl)-1H-pyrrol-3-yl)methanone], the IC50 was 819 nM in assay [1] (Homo sapiens, HCT-116, 96 h); 859 nM in assay [2] (Homo sapiens, A549, 96 h); 725 nM in assay [3].

As for `COc1ccc(Br)cc1C(=O)c1c(C=O)[nH]c(-c2nnc(C3CC3)o2)c1C` [Compound 258, 3-(5-bromo-2-methoxybenzoyl)-5-(5-cyclopropyl-1,3,4-oxadiazol-2-yl)-4-methyl-1H-pyrrole-2-carboaldehyde], the 50% inhibitory concentration (IC50) in assay [1] (Homo sapiens, HCT-116, 96 h) turned out to be 45.4 nM; in assay [2] (Homo sapiens, A549, 96 h), 50.5 nM; in assay [3] it was 30.9 nM.

With `Cc1[nH]c(-c2nnc(C3CC3)o2)c(C)c1C(=O)c1cccc(CO)c1` [Compound 199, (5-(5-cyclopropyl-1,3,4-oxadiazol-2-yl)-2,4-dimethyl-1H-pyrrol-3-yl)(3-(hydroxymethyl)phenyl)methanone], the IC50 in assay [1] (Homo sapiens, HCT-116, 96 h) amounted to 10.6 nM; in assay [2] (Homo sapiens, A549, 96 h), 19.5 nM; in assay [3], 9 nM.

On to `Cc1c(-c2nnn(CCO)n2)[nH]c(C#N)c1C(=O)c1cccc(Br)c1` [Compound 133, 3-(3-bromobenzoyl)-5-(2-(2-hydroxyethyl)-2H-tetrazol-5-yl)-4-methyl-1H-pyrrole-2-carbonitrile], for which the IC50 amounted to 158 nM in assay [1] (Homo sapiens, HCT-116, 96 h); 238 nM in assay [2] (Homo sapiens, A549, 96 h); 192 nM in assay [3].

Turning to `Cc1[nH]c(-c2nnn(CCO)n2)c(C)c1C(=O)c1cccc(CO)c1` [Compound 163, (5-(2-(2-hydroxyethyl)-2H-tetrazol-5-yl)-2,4-dimethyl-1H-pyrrol-3-yl)(3-(hydroxymethyl)phenyl)methanone], the IC50 stood at 67.5 nM in assay [1] (Homo sapiens, HCT-116, 96 h); 305 nM in assay [2] (Homo sapiens, A549, 96 h); 73.8 nM in assay [3].
